Test [1] relates to Thanatephorus cucumeris (Rhizoctonia solani). The test is described as follows: In vivo test b) Rice Sheath Blight (RSB), 24 hour preapplication protectant, % control. As to conditions: protectant; for pest or weed control at 200 ppm: read-out: % Control RSB. The procedure: Compounds were tested at 200 ppm as a twenty-four hour preapplication protectant test prior to inoculation.
b) Rice Sheath Blight (RSB)
Thanatephorus cucumeris (Rhizoctonia solani) mycelia were grown for six days in potato dextrose broth in shake culture. Drained mycelial mats were blended with an approximately equal weight of rice flour and five parts water. This slurry was dispensed onto the soil surface of pots containing rice seedlings previously treated with experimental compounds. The plants were placed in a mist chamber at 25°-28° C. for 48 hours. Following two more days at 25° C. and 70-90% relative humidity the plants were evaluated for percent disease control compared to check plants.

For test [2], the system named is Magnaporthe grisea (Pyricularia oryzae). As to the kind of experiment: whole plant or invertebrate. It counts as in vivo, Magnaporthe grisea (Pyricularia oryzae) on M201 rice plants. The following applies: Pyricularia oryzae, 144 h, read-out: % Control RB.
Another test concerns fungal mycelium. The test is described as follows: organism not typed. As to conditions: read-out: % growth inhibition. The class given is cell-based.
In another test the test system is Candida albicans. The test is described as follows: Activity against Candida albicans in microtiter plates, % control of growth. It counts as cell-based. The procedure: The activity against Candida albicans was determined using the following test protocol.
Conidia and mycelium from the Candida albicans culture maintained on potato dextrose agar plates were lightly scraped off into yeast extract-dextrose broth (YDB) so that mostly conidia was used as inoculum. The conidial suspsension was strained through a double layer of cheesecloth to remove mycelial clumps. The inoculum mixture was placed in microtiter plates using a 12-tipped pipet. 175 microliters were placed in each well of the microliter plates and the plates were placed in the refrigerator overnight. There were two replications.
The compounds to be tested were dissolved in 1:1 acetone:methanol and 100 ppm of the compound solution were placed in a well of the prepared microtiter plates.
The microtiter plates were incubated for 7 days at room temperature after addition of the compounds. Percent control was visually estimated using a microtiter plate reading mirror. Readings were made at 1, 2, 3, and/or 7 days after treatment.

In another test the test system is Boytrytis cinerea. As to the kind of experiment: Tomato Botrytis protective experiments (single fungicides and combinations). It counts as in vivo, Boytrytis cinerea on Pixie tomato plants. The procedure:
(§1) The experiments below were performed using the relevant following procedures.
(§2) Experimental compounds and commercial fungicides were tank mixed and mechanically sprayed at varying concentrations in a 1:1:2 mixture of acetone, methanol and water. Protective or preventive sprays were applied one day before spore inoculation. Curative or post-infection sprays were applied one day after spore inoculation. The spraying system utilized delivered a 200 ppm dose at the rate of 1458 liters per hectare. The following details were applicable for the specified diseases:
Three week-old "Pixie" tomato plants were inoculated with Boytrytis cinerea conidia. The plants were held in dim light for two days prior to inoculation. The spore concentration was 500,000 to 650,000 conidia per milliliter of dextrose solution. An atomizer was used to apply the conidial suspension in a heavy coating to near runoff to both the upper and lower leaf surfaces and to the plant stem. The plants were kept in a continuous mist chamber with a day-night cycle and at 20 degrees centigrade for 5 days.
(§3) "Disease control" was recorded as percent control based on a comparison of the unsprayed, inoculated controls and the treated, inoculated plants.

The subject of test [3] is Pyricularia oryzae. The class given is in vivo, Pyricularia oryzae on M-201 rice plants. The following applies: curative.
The subject of test [4] is Pyricularia oryzae. The class given is in vivo, Pyricularia oryzae on M-201 rice plants. The following applies: protectant.
Another test has as its system fungal inoculum. The test is described as follows: organism not typed. It counts as cell-based. The following applies: read-out: % growth inhibition.
The test system of another test is Septoria nodorum. As to the kind of experiment: Wheat Septoria preventative experiments (single fungicides and combinations). It counts as in vivo, Septoria nodorum on Fielder wheat plants. Here is the method: as §1, §2
Fielder wheat plants were inoculated with Septoria nodorum conidia. The spore concentration was approximately 3,000,000 conidia per milliliter in water. An atomizer was used to apply twenty milliliters of inoculum to twenty plants per flat. The plants were placed in a humidity cabinet at 100% relative humidity for 72 hours and then placed in a greenhouse. Evaluations were made 10 days after inoculation.
as §3

The mark [5] stands for this setting: 24 h, 1 day after treatment, read-out: % control of growth +1.
Setting [6] is: 48 h, 2 days after treatment, read-out: % control of growth +2.
[7] abbreviates: 72 h, 3 days after treatment, read-out: % control of growth +3.
Setting [8] is: 168 h, 7 days after treatment, read-out: % control of growth +7.

Where “and” joins values, the source holds several entries; their conditions need not be identical. Equal values may be shown once. Read-outs that look alike come from different tables or passages of the source.

Consider 22 compounds from patent publication US5726162A (priority 1996, dated 1998).

`CCC#CCN1N=C(c2ccc(Cl)cc2)OCC1=O` [Compound 161, 2-(4-chlorophenyl)-4-(2-pentyn-1-yl)-4H,6H-1,3,4-oxadiazin-5-one]: the pest or weed control at 200 ppm in test [1] turned out to be 0%; in [2], 99%. In addition, in the test with fungal mycelium, the inhibition at 1 ppm was 75.9%. Moreover, the inhibition of growth at 100 ppm in the test on Candida albicans (setting [5]), with Candida albicans (setting [6]) and in the test with Candida albicans (setting [7]) was 100% each time.
For `N#CC(CCc1ccc(Cl)cc1)(Cn1cncn1)c1ccccc1` (stereo not drawn) [fenbuconazole, alpha-[2-(4-chlorophenyl)ethyl]-alpha-phenyl-1H-1,2,4-triazole-1-propanenitrile], the results for the “% Disease Control, Observed” value in the test on Boytrytis cinerea (6 ppm alone), in the test on Boytrytis cinerea (25 ppm alone) and in the test with Boytrytis cinerea (50 ppm alone) were 50%, 75% and 75%, respectively.
On to mancozeb [reference compound], for which the “% Disease Control, Observed” value with Pyricularia oryzae [3] (50 ppm alone) is 0%; with Pyricularia oryzae [3] (200 ppm alone) it was 0%; in the test with Pyricularia oryzae [4] (50 ppm alone) it was 75%; in the test with Pyricularia oryzae [4] (200 ppm alone), 99%.
In the case of `C=CC#CCn1nc(-c2ccc(Cl)cc2)ccc1=O` [Compound 119], the values for the pest or weed control at 100 ppm in [1] (100 ppm) and in test [2] were 0% and 95%, respectively. For the same compound, in the test on fungal inoculum, the inhibition at 5 ppm stood at 99.3%. For the same compound, the inhibition of growth at 100 ppm with Candida albicans (setting [5]), with Candida albicans (setting [6]), in the test with Candida albicans (setting [7]) and in the test with Candida albicans (setting [8]) was 100% in each case.
For `CC(C)NC(=O)N1CC(=O)N(c2cc(Cl)cc(Cl)c2)C1=O` [iprodione, reference compound], the “% Disease Control, Observed” value with Septoria nodorum (12 ppm alone) is 0%; in the test with Septoria nodorum (50 ppm alone), 0%; with Septoria nodorum (200 ppm alone), 50%.
Regarding `N#Cc1c(Cl)c(Cl)c(Cl)c(C#N)c1Cl` [chlorothalonil], the figures for the “% Disease Control, Observed” value in the test with Pyricularia oryzae [4] (12 ppm alone), in the test on Pyricularia oryzae [4] (50 ppm alone) and in the test on Pyricularia oryzae [4] (200 ppm alone) were 0%, 0% and 99%, respectively.
Take `CCC#CCN1N=C(c2ccc(Cl)cc2)CCC1=O` [Compound 12, 6-(4-chlorophenyl)-2-(2'-pentynyl)-4,5-dihydropyridazinone]: the results for the pest or weed control at 200 ppm in [1] and in test [2] were 50% and 99%, respectively. Moreover, the inhibition at 1 ppm in the test on fungal inoculum was 96%. For the same compound, the “% Disease Control, Observed” value in the test on Pyricularia oryzae [4] (12 ppm alone) is given as 0%; with Pyricularia oryzae [4] (50 ppm alone), 50%; in the test on Pyricularia oryzae [4] (200 ppm alone), 50%. In addition, the inhibition of growth at 100 ppm in the test on Candida albicans (setting [5]), in the test with Candida albicans (setting [6]), in the test on Candida albicans (setting [7]) and in the test on Candida albicans (setting [8]) was 100% throughout.
For the compound `O=C1CCC(c2ccc(Cl)cc2)=NN1CC#Cc1ccccc1` [Compound 17], the pest or weed control at 200 ppm in [1] worked out at 80%; in test [2] it was 0%. The inhibition at 25 ppm in the test with fungal inoculum amounted to 91.9%.
Take `O=C1CCC(c2ccc(Cl)cc2)=NN1C(=O)c1ccccc1` [Compound 16]: the pest or weed control at 200 ppm in test [1] was 50%; in [2], 0%. Besides, in the test with fungal inoculum, the inhibition at 50 ppm worked out at 12.7%.
In the case of `CC#CCN1N=C(c2ccc(OC)c(F)c2)CCC1=O` [Compound 20], the pest or weed control at 200 ppm in test [1] and in test [2] was 0% throughout. Also, in the test with fungal inoculum, the inhibition at 10 ppm was 100%.
Consider `CC=CCN1N=C(c2ccc(Cl)cc2)CCC1=O` [Compound 8], for which the pest or weed control at 200 ppm in [1] and in [2] was 0% throughout. Besides, the inhibition at 100 ppm with fungal inoculum was determined as 96.2%.
In the case of `C=CC#CCN1N=C2c3ccc(Cl)cc3CC2CC1=O` (stereo not drawn) [Compound 156, 7-chloro-2,4,4a,5-tetrahydro-2-(2-pentyn-4-ene-1-yl)-indeno [1,2-c]-pyridazin-3-one], the pest or weed control at 200 ppm in test [1] was 95%; in test [2], 100%. In addition, the inhibition at 1 ppm with fungal mycelium came out at 100%. Besides, the inhibition of growth at 100 ppm with Candida albicans (setting [5]), with Candida albicans (setting [6]) and in the test on Candida albicans (setting [7]) was 100% in each case.
As to `C=CCOC1=NS(=O)(=O)c2ccccc21` [probenazole], the “% Disease Control, Observed” value in the test on Pyricularia oryzae [4] (12 ppm alone), with Pyricularia oryzae [4] (50 ppm alone) and in the test on Pyricularia oryzae [4] (200 ppm alone) was 0% each time.
Consider `C=CC#CCN1N=C(c2ccc(Cl)c(F)c2)CCC1=O` [Compound 100], for which the figures for the pest or weed control at 200 ppm in [1] and in test [2] were 0% and 100%, respectively. The inhibition at 0.16 ppm with fungal mycelium was 100%. Moreover, the inhibition of growth at 100 ppm in the test on Candida albicans (setting [5]), in the test on Candida albicans (setting [6]) and in the test on Candida albicans (setting [7]) was 100% throughout.
Take `CCC#CCn1nc(-c2ccc(Cl)cc2)ccc1=O` [Compound 109, 6-(4-chlorophenyl)-2-(2'-pentynyl)pyridazinone]: the pest or weed control at 200 ppm was 100% in test [1] and 99% in test [2]. Besides, the “% Disease Control, Observed” value was 0% with Pyricularia oryzae [3] (12 ppm alone); 50% with Pyricularia oryzae [3] (50 ppm alone); 80% with Pyricularia oryzae [3] (200 ppm alone); 0% in the test with Septoria nodorum (12 ppm alone); 50% with Septoria nodorum (50 ppm alone); 50% in the test on Septoria nodorum (200 ppm alone). In addition, the “% Disease Control, Observed” value is 0% with Pyricularia oryzae [4] (12 ppm alone); 0% in the test with Pyricularia oryzae [4] (50 ppm alone); 99% and 80% in the test on Pyricularia oryzae [4] (200 ppm alone); 0% in the test with Boytrytis cinerea (50 ppm alone); 75% with Boytrytis cinerea (200 ppm alone). For the same compound, in the test with fungal mycelium, the inhibition at 1 ppm worked out at 100%. Further, the inhibition of growth at 100 ppm with Candida albicans (setting [5]), in the test on Candida albicans (setting [6]), in the test on Candida albicans (setting [7]) and in the test on Candida albicans (setting [8]) was 100% throughout.
In the case of `CCC(O)CN1N=C(c2ccc(Cl)c(Cl)c2)CCC1=O` (stereo not drawn) [Compound 3], the pest or weed control at 200 ppm in test [1] and in test [2] was 0% throughout. In the test with fungal inoculum, the inhibition at 100 ppm stood at 53.6%.
For the compound `C=CC#CCn1nc(-c2ccc(Cl)c(F)c2)ccc1=O` [Compound 128], the pest or weed control at 200 ppm in test [1] is 0%; in test [2] it was 95%. Besides, the inhibition at 0.156 ppm with fungal mycelium came out at 100%. Moreover, the inhibition of growth at 100 ppm in the test on Candida albicans (setting [5]), in the test with Candida albicans (setting [6]) and in the test on Candida albicans (setting [7]) was 100% in each case.
`CCC#CCn1cc(-c2ccc(Cl)cc2)cnc1=O` [Compound 150]: the pest or weed control at 200 ppm in test [1] came to 95%; in test [2], 99%. The inhibition at 50 ppm in the test on fungal inoculum is 48.2%.
On to `CCCCN1N=C(c2ccc(Cl)cc2)CCC1=O` [Compound 7], for which the pest or weed control at 200 ppm in test [1] and in test [2] was 0% in each case. Moreover, the inhibition at 100 ppm with fungal inoculum was found to be 94.4%.
On to `O=C1CCc2cccc3c2N1CC3` [pyroquilon], for which the “% Disease Control, Observed” value is 0% in the test with Pyricularia oryzae [4] (12 ppm alone), 0% in the test with Pyricularia oryzae [4] (50 ppm alone) and 85% with Pyricularia oryzae [4] (200 ppm alone).
`C#CCN1N=C(c2ccc(Cl)cc2)CCC1=O` [Compound 6, 6-(4-chlorophenyl)-2-propargyl-4,5-dihydropyridazinone]: the pest or weed control at 200 ppm in [1] and in test [2] was 0% each time. Moreover, the inhibition at 100 ppm with fungal inoculum came out at 91.5%.
Regarding `CC#CCN1N=C(c2ccc(F)cc2)CCC1=O` [Compound 13], the pest or weed control at 200 ppm in test [1] and in test [2] was 50% throughout. Moreover, the inhibition at 10 ppm in the test on fungal inoculum came out at 87%.

By inhibition is commonly meant how much of the control response was suppressed.
